Data as given in PubChem BioAssay (NCI).
Values joined by “and” are separate entries in the source; they are usually repeats but may differ in a detail not shown here. Equal entries are not always repeated.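 Briefly, cells in 96-well plates were exposed to five compound concentrations for 48 h, and endpoints were estimated by linear interpolation. At the GI50, growth is halved. At the TGI there is no net growth.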

Tests used:
Assay in all cases: NCI anticancer screen, dose series, 48 h
[1] = tested on: LOX IMVI melanoma
[2] = tested on: CAKI-1 renal
[3] = tested on: HOP-62 NSCLC
[4] = tested on: HCT-116 colon
[5] = tested on: SNB-75 CNS
[6] = tested on: RPMI-8226 leukemia
[7] = tested on: 786-0 renal
[8] = tested on: OVCAR-8 ovarian
[9] = tested on: SK-MEL-2 melanoma
[10] = tested on: MALME-3M melanoma
[11] = tested on: EKVX NSCLC
[12] = tested on: PC-3 prostate
[13] = tested on: UACC-62 melanoma
[14] = tested on: SF-268 CNS
[15] = tested on: HOP-18 NSCLC
[16] = tested on: CCRF-CEM leukemia
[17] = tested on: HCC-2998 colon
[18] = tested on: DLD-1 colon
[19] = tested on: HT29 colon
[20] = tested on: A498 renal
[21] = tested on: SK-MEL-5 melanoma
[22] = tested on: HL-60(TB) leukemia
[23] = tested on: RXF 393 renal
[24] = tested on: MDA-N
[25] = tested on: MCF7 breast
[26] = tested on: LXFL 529 NSCLC
[27] = tested on: SF-539 CNS
[28] = tested on: A549 NSCLC
[29] = tested on: KM12 colon
[30] = tested on: SR leukemia
[31] = tested on: NCI-H460 lung
[32] = tested on: M19-MEL melanoma
[33] = tested on: T-47D breast
[34] = tested on: KM20L2 colon
[35] = tested on: OVCAR-3 ovarian
[36] = tested on: NCI-H23 lung
[37] = tested on: MDA-MB-231 breast
[38] = tested on: TK-10 renal
[39] = tested on: M14 melanoma
[40] = tested on: OVCAR-4 ovarian
[41] = tested on: XF 498 CNS
[42] = tested on: SK-OV-3 ovarian
[43] = tested on: SK-MEL-28 melanoma
[44] = tested on: SN12C renal
[45] = tested on: UACC-257 melanoma
[46] = tested on: NCI-H522 lung
[47] = tested on: OVCAR-5 ovarian
[48] = tested on: SNB-78 CNS
[49] = tested on: DU-145 prostate
[50] = tested on: UO-31 renal
[51] = tested on: BT-549 breast
[52] = tested on: MDA-MB-435
[53] = tested on: ACHN renal
[54] = tested on: DMS 273 small cell lung
[55] = tested on: SNB-19 CNS
[56] = tested on: SF-295 CNS
[57] = tested on: NCI-H226 lung
[58] = tested on: U251 CNS
[59] = tested on: HOP-92 NSCLC
[60] = tested on: COLO 205 colon
[61] = tested on: HS 578T breast
[62] = tested on: DMS 114 small cell lung
[63] = tested on: SW-620 colon
[64] = tested on: K-562 leukemia
[65] = tested on: MOLT-4 leukemia
[66] = tested on: HCT-15 colon
[67] = tested on: IGROV1 ovarian
[68] = tested on: NCI/ADR-RES ovarian

O=[N+]([O-])c1cccc2nc3ccccc3c(NCCO)c12
TGI [1]: 11.9 nM and 16.9 nM
GI50 [2]: 0.484 nM
TGI [2]: 2.93 nM
TGI [3]: 2.05 nM
GI50 [4]: 0.0418 nM
TGI [4]: 0.47 nM
TGI [5]: 5.01 nM
GI50 [6]: 0.0396 nM
GI50 [7]: 0.265 nM
TGI [7]: 2.1 nM
GI50 [8]: 1.21 nM
TGI [8]: 19.2 nM
GI50 [9]: 0.338 nM
TGI [9]: 0.857 nM
GI50 [10]: 0.525 nM
TGI [10]: 1.7 nM
GI50 [11]: 5.47 nM
TGI [11]: 3.73 nM
GI50 [12]: 0.136 nM
TGI [12]: 0.414 nM
GI50 [13]: 0.705 nM
GI50 [14]: 0.25 nM
TGI [14]: 3.77 nM and 10.7 nM
TGI [15]: > 100 nM
GI50 [16]: 3.79 nM
TGI [16]: > 100 nM
GI50 [17]: 1.46 nM
TGI [17]: 3.67 nM and 3.38 nM
TGI [18]: 3.08 nM
GI50 [19]: 1.82 nM
TGI [19]: 6.86 nM and 3.46 nM
GI50 [20]: 9.34 nM
TGI [20]: 36.7 nM
GI50 [21]: 0.279 nM
TGI [21]: 1.12 nM
GI50 [22]: 1.18 nM
TGI [22]: > 100 nM
GI50 [23]: 0.14 nM
TGI [23]: 3.95 nM and 0.815 nM
GI50 [24]: 0.0322 nM
GI50 [25]: 0.113 nM
TGI [25]: 0.471 nM
TGI [26]: 15.7 nM
GI50 [27]: 0.647 nM
TGI [27]: 2.14 nM
GI50 [28]: 0.154 nM
TGI [28]: 1.46 nM
GI50 [29]: 1.1 nM
TGI [29]: 12.9 nM
GI50 [30]: 1.39 nM
TGI [30]: 7.31 nM
GI50 [31]: 0.0272 nM
TGI [32]: 8.48 nM
TGI [33]: 4.8 nM
TGI [34]: 3.57 nM
GI50 [35]: 2.87 nM
TGI [35]: 1.78 nM
GI50 [36]: 0.464 nM
TGI [36]: 5.23 nM and 1.92 nM
GI50 [37]: 0.118 nM
GI50 [38]: 0.594 nM
TGI [38]: 9.35 nM and 2.74 nM
TGI [39]: 0.799 nM
TGI [40]: 2.93 nM and 26.7 nM
TGI [41]: 4.37 nM
GI50 [42]: 4.69 nM
GI50 [43]: 0.707 nM
GI50 [44]: 0.299 nM
TGI [44]: 2.32 nM
GI50 [45]: 0.999 nM
TGI [45]: 3.84 nM
GI50 [46]: 0.527 nM
TGI [46]: 1.52 nM
GI50 [47]: 0.703 nM
TGI [47]: 9.29 nM and 3.07 nM
TGI [48]: 50.4 nM and 12 nM
GI50 [49]: 0.0482 nM
TGI [49]: 1.95 nM
GI50 [50]: 0.336 nM
TGI [50]: 5.76 nM and 1.73 nM
GI50 [51]: 0.108 nM
TGI [51]: 0.295 nM
GI50 [52]: 0.0714 nM
GI50 [53]: 0.189 nM
TGI [53]: 4.05 nM and 2.47 nM
TGI [54]: 48.1 nM
GI50 [55]: 1.2 nM
TGI [55]: 87.8 nM
GI50 [56]: 0.952 nM
TGI [56]: 13.7 nM
GI50 [57]: 3.22 nM
TGI [57]: 9.82 nM and 19.8 nM
GI50 [58]: 0.4 nM
TGI [58]: 5.18 nM
GI50 [59]: 1.22 nM
TGI [59]: 4.61 nM and 5.48 nM
GI50 [60]: 0.181 nM
TGI [60]: 6.4 nM and 0.73 nM
GI50 [61]: 0.298 nM
TGI [61]: 0.802 nM
TGI [62]: 14.2 nM
GI50 [63]: 0.0593 nM
TGI [63]: 1.4 nM
GI50 [64]: 1.26 nM
GI50 [65]: 1.34 nM
TGI [65]: > 100 nM
GI50 [66]: 0.293 nM
TGI [66]: 4.25 nM
GI50 [67]: 11.8 nM
TGI [67]: 13.9 nM and 72.4 nM

C[C@]12CC[C@@H]3c4ccc(O)cc4CC[C@H]3[C@@H]1CC[C@@H]2OC(=O)CCC1CCCC1
TGI [1]: 35600 nM
TGI [2]: 33200 nM
TGI [3]: 33900 nM
TGI [4]: 31100 nM
TGI [6]: 38300 nM
TGI [7]: 29900 nM
TGI [8]: 31700 nM
TGI [9]: > 56400 nM
TGI [10]: 55300 nM
TGI [11]: 21000 nM
TGI [12]: 31300 nM
TGI [13]: 27500 nM
TGI [14]: 41100 nM
TGI [15]: 59600 nM
TGI [16]: 38400 nM
TGI [17]: 37800 nM
TGI [18]: 98600 nM
TGI [19]: 32000 nM
TGI [20]: 38800 nM
TGI [21]: 33400 nM
TGI [22]: 34800 nM
TGI [23]: 28300 nM
TGI [24]: 20200 nM
TGI [25]: 31000 nM
TGI [26]: 32100 nM
TGI [27]: 40500 nM
TGI [28]: 32200 nM
TGI [29]: > 56800 nM
TGI [30]: 39300 nM
TGI [31]: 36300 nM
TGI [32]: 67900 nM
TGI [33]: 28400 nM
TGI [34]: 33100 nM
TGI [35]: 30100 nM
TGI [36]: 34600 nM
TGI [37]: 32200 nM
TGI [38]: 48400 nM
TGI [39]: 43400 nM
TGI [68]: 32900 nM
TGI [40]: 32000 nM
TGI [41]: 40900 nM
TGI [42]: 38300 nM
TGI [43]: 34200 nM
TGI [44]: 31200 nM
TGI [45]: > 57700 nM
TGI [46]: 32600 nM
TGI [47]: > 57200 nM
TGI [48]: > 100000 nM
TGI [49]: 26900 nM
TGI [50]: 35300 nM
TGI [51]: 32700 nM
TGI [52]: 21700 nM
TGI [53]: 55500 nM
TGI [54]: 27700 nM
TGI [55]: 31300 nM
TGI [56]: 31800 nM
TGI [57]: 36600 nM
TGI [58]: 33500 nM
TGI [59]: 47700 nM
TGI [60]: 33900 nM
TGI [62]: 85900 nM
TGI [63]: 38100 nM
TGI [64]: 35200 nM
TGI [65]: 35200 nM
TGI [66]: 33800 nM
TGI [67]: 33400 nM

CCOC(=O)NC(=O)c1cn(-c2ccc(CCOC(=O)NCCCCCCNC(=O)OCCc3ccc(-n4c(=O)[nH]cc(C(=O)NC(=O)OCC)c4=O)cc3)cc2)c(=O)[nH]c1=O
TGI [1]: > 100000 nM
TGI [2]: > 100000 nM
TGI [3]: 72000 nM
TGI [4]: > 100000 nM
TGI [5]: 67300 nM
TGI [6]: > 100000 nM
TGI [7]: > 100000 nM
TGI [8]: > 100000 nM
TGI [9]: > 100000 nM
TGI [10]: > 91900 nM
TGI [11]: > 100000 nM
TGI [13]: 60600 nM
TGI [14]: > 84800 nM
TGI [15]: > 100000 nM
TGI [16]: > 100000 nM
TGI [17]: > 100000 nM
TGI [18]: > 100000 nM
TGI [19]: > 100000 nM
TGI [20]: > 100000 nM
TGI [21]: > 100000 nM
TGI [22]: > 100000 nM
TGI [23]: > 100000 nM
TGI [26]: 69700 nM
TGI [27]: 54500 nM
TGI [28]: > 100000 nM
TGI [29]: > 100000 nM
TGI [30]: > 100000 nM
TGI [31]: > 76800 nM
TGI [32]: > 94800 nM
TGI [34]: > 100000 nM
TGI [35]: > 100000 nM
TGI [36]: > 100000 nM
TGI [38]: 97500 nM
TGI [39]: > 100000 nM
TGI [40]: > 100000 nM
TGI [41]: > 48900 nM
TGI [42]: > 89800 nM
TGI [43]: > 100000 nM
TGI [44]: > 100000 nM
TGI [45]: > 100000 nM
TGI [46]: 68600 nM
TGI [47]: > 100000 nM
TGI [48]: 98800 nM
TGI [50]: > 93900 nM
TGI [53]: > 92700 nM
TGI [54]: > 100000 nM
TGI [55]: 51400 nM
TGI [56]: > 82400 nM
TGI [58]: > 74900 nM
TGI [59]: > 100000 nM
TGI [60]: > 100000 nM
TGI [62]: > 100000 nM
TGI [63]: > 100000 nM
TGI [64]: > 100000 nM
TGI [65]: > 100000 nM
TGI [66]: > 100000 nM
TGI [67]: > 100000 nM
